US12540143B2, “Methods and compositions for targeted protein degradation” (Ranok Therapeutics (Hangzhou) Co. Ltd., priority 2019, dated 2026)

Test system: MV4-11 cells
Experiment: MV4-11 Cytotoxicity Assay
Type: cell-based, human
Conditions: Homo sapiens, MV4-11; 72 hr, CCK-8; read-out: MV4-11 cytotoxicity

`Cc1sc2c(c1C)C(c1ccc(Cl)cc1)=N[C@@H](CC(=O)N1CCN(c3ccc(-n4c(O)nnc4-c4cc(C(C)C)c(O)cc4O)cc3)CC1)c1nnc(C)n1-2` [Compound 79, (S)-2-(4-(4-chlorophenyl)-2,3,9-trimethyl-6H-thieno[3,2-f][1,2,4]triazolo[4,3-a][1,4]diazepin-6-yl)-1-(4-(4-(3-(2,4-dihydroxy-5-isopropylphenyl)-5-hydroxy-4H-1,2,4-triazol-4-yl)phenyl)piperazin-1-yl)ethan-1-one] was tested. Which IC50 did it give?
Its IC50 is less than 100 nM.

With `Cc1sc2c(c1C)C(c1ccc(Cl)cc1)=N[C@@H](CC(=O)NCC(=O)NCCOc1ccc(-n3c(O)nnc3-c3cc(C(C)C)c(O)cc3O)cc1)c1nnc(C)n1-2` [Compound 54, (S)-2-(4-(4-chlorophenyl)-2,3,9-trimethyl-6H-thieno[3,2-f][1,2,4]triazolo[4,3-a][1,4]diazepin-6-yl)-N-(2-((2-(4-(3-(2,4-dihydroxy-5-isopropylphenyl)-5-hydroxy-4H-1,2,4-triazol-4-yl)phenoxy)ethyl)amino)-2-oxoethyl)acetamide] as the compound, how does the IC50 read?
Its IC50 is 100 to 1000 nM.

For `Cc1sc2c(c1C)C(c1ccc(Cl)cc1)=N[C@@H](CC(=O)N(C)[C@H](C)c1ccc(CN3CCN(Cc4ccc(-n5c(O)nnc5-c5cc(C(C)C)c(O)cc5O)cc4)CC3)cc1)c1nnc(C)n1-2` [Compound 92, 2-((S)-4-(4-chlorophenyl)-2,3,9-trimethyl-6H-thieno[3,2-f][1,2,4]triazolo[4,3-a][1,4]diazepin-6-yl)-N—((R)-1-(4-((4-(4-(3-(2,4-dihydroxy-5-isopropylphenyl)-5-hydroxy-4H-1,2,4-triazol-4-yl)benzyl)piperazin-1-yl)methyl)phenyl)ethyl)-N-methylacetamide, trifluoroacetic acid], which IC50 is on record?
Its IC50 is 100 to 1000 nM.

`CCc1cc(-c2nnc(C(=O)NCCN3CCCCC3)n2-c2ccc(CN3CCN(CC4CCN(C(=O)C[C@@H]5N=C(c6ccc(Cl)cc6)c6c(sc(C)c6C)-n6c(C)nnc65)CC4)CC3)cc2)c(O)cc1O` [Compound 117, (S)-4-(4-((4-((1-(2-(4-(4-chlorophenyl)-2,3,9-trimethyl-6H-thieno[3,2-f][1,2,4]triazolo[4,3-a][1,4]diazepin-6-yl)acetyl)piperidin-4-yl)methyl)piperazin-1-yl)methyl)phenyl)-5-(5-ethyl-2,4-dihydroxyphenyl)-N-(2-(piperidin-1-yl)ethyl)-4H-1,2,4-triazole-3-carboxamide, trifluoroacetic acid] was tested. Which IC50 did it give?
The IC50 was less than 100 nM.

How did the IC50 turn out when `Cc1sc2c(c1C)C(c1ccc(Cl)cc1)=N[C@@H](CC(=O)N1CCN(C(=O)C3CCN(c4ccc(-n5c(O)nnc5-c5cc(C(C)C)c(O)cc5O)cc4)CC3)CC1)c1nnc(C)n1-2` [Compound 29, (S)-2-(4-(4-chlorophenyl)-2,3,9-trimethyl-6H-thieno[3,2-f][1,2,4]triazolo[4,3-a][1,4]diazepin-6-yl)-1-(4-(1-(4-(3-(2,4-dihydroxy-5-isopropylphenyl)-5-hydroxy-4H-1,2,4-triazol-4-yl)phenyl)piperidine-4-carbonyl)piperazin-1-yl)ethan-1-one] was run?
Its IC50 is 100 to 1000 nM.

How did the IC50 turn out when `Cc1sc2c(c1C)C(c1ccc(Cl)cc1)=N[C@@H](CC(=O)NCCOCCOCCOc1ccc(-n3c(S)nnc3-c3cc(C(C)C)c(O)cc3O)cc1)c1nnc(C)n1-2` [Compound 34, (S)-2-(4-(4-chlorophenyl)-2,3,9-trimethyl-6H-thieno[3,2-f][1,2,4]triazolo[4,3-a][1,4]diazepin-6-yl)-N-(2-(2-(2-(4-(3-(2,4-dihydroxy-5-isopropylphenyl)-5-mercapto-4H-1,2,4-triazol-4-yl)phenoxy)ethoxy)ethoxy)ethyl)acetamide] was run?
Its IC50 is 100 to 1000 nM.

For `CCc1cc(-c2nnc(O)n2-c2ccc(CN3CCC(C(=O)N4CCC(CNCC[C@@H]5N=C(c6ccc(Cl)cc6)c6c(sc(C)c6C)-n6c(C)nnc65)CC4)CC3)cc2)c(O)cc1O` [Compound 68, (4-(((2-((6S)-4-(4-chlorophenyl)-2,3,9-trimethyl-6H-thieno[3,2-f][1,2,4]triazolo[4,3-a][1,4]diazepin-6-yl)ethyl)amino)methyl)piperidin-1-yl)(1-(4-(3-(5-ethyl-2,4-dihydroxyphenyl)-5-hydroxy-4H-1,2,4-triazol-4-yl)benzyl)piperidin-4-yl) methanone, trifluoroacetic acid], which IC50 is on record?
Its IC50 is 100 to 1000 nM.

`CCCc1cc(-c2nnc(O)n2-c2ccc(CN3CCN(CC4CCN(C(=O)C[C@@H]5N=C(c6ccc(Cl)cc6)c6c(sc(C)c6C)-n6c(C)nnc65)CC4)CC3)cc2)c(O)cc1O` [Compound 11, (S)-2-(4-(4-chlorophenyl)-2,3,9-trimethyl-6H-thieno[3,2-f][1,2,4]triazolo[4,3-a][1,4]diazepin-6-yl)-1-(4-((4-(4-(3-(2,4-dihydroxy-5-propylphenyl)-5-hydroxy-4H-1,2,4-triazol-4-yl)benzyl)piperazin-1-yl)methyl)piperidin-1-yl)ethan-1-one, trifluoroacetic acid] was tested. Which IC50 did it give?
Its IC50 is less than 100 nM.

For `Cc1sc2c(c1C)C(c1ccc(Cl)cc1)=N[C@@H](CC(=O)N1CCC(CN3CCN(Cc4ccc(-n5c(O)nnc5-c5cc(C(C)C)c(O)cc5O)cc4F)CC3)CC1)c1nnc(C)n1-2` [Compound 17, (S)-2-(4-(4-chlorophenyl)-2,3,9-trimethyl-6H-thieno[3,2-f][1,2,4]triazolo[4,3-a][1,4]diazepin-6-yl)-1-(4-((4-(4-(3-(2,4-dihydroxy-5-isopropylphenyl)-5-hydroxy-4H-1,2,4-triazol-4-yl)-2-fluorobenzyl)piperazin-1-yl)methyl)piperidin-1-yl)ethan-1-one, trifluoroacetic acid], which IC50 is on record?
The IC50 was less than 100 nM.

Which IC50 does the source give for `Cc1sc2c(c1C)C(c1ccc(Cl)cc1)=N[C@@H](CC(=O)N1CCC(CN3CCC(Cc4ccc(-n5c(O)nnc5-c5cc(C(C)C)c(O)cc5O)cc4)CC3)CC1)c1nnc(C)n1-2` [Compound 94, (S)-2-(4-(4-chlorophenyl)-2,3,9-trimethyl-6H-thieno[3,2-f][1,2,4]triazolo[4,3-a][1,4]diazepin-6-yl)-1-(4-((4-(4-(3-(2,4-dihydroxy-5-isopropylphenyl)-5-hydroxy-4H-1,2,4-triazol-4-yl)benzyl)piperidin-1-yl)methyl)piperidin-1-yl)ethan-1-one, trifluoroacetic acid] here?
The IC50 was less than 100 nM.

How did the IC50 turn out when `Cc1sc2c(c1C)C(c1ccc(Cl)cc1)=N[C@@H](CC(=O)N1CCC(Cc3ccc(CN(C)Cc4ccc(-n5c(O)nnc5-c5cc(C(C)C)c(O)cc5O)cc4)cc3)CC1)c1nnc(C)n1-2` [Compound 83, (S)-2-(4-(4-chlorophenyl)-2,3,9-trimethyl-6H-thieno[3,2-f][1,2,4]triazolo[4,3-a][1,4]diazepin-6-yl)-1-(4-(4-(((4-(3-(2,4-dihydroxy-5-isopropylphenyl)-5-hydroxy-4H-1,2,4-triazol-4-yl)benzyl)(methyl)amino)methyl)benzyl)piperidin-1-yl)ethan-1-one, trifluoroacetic acid] was run?
The IC50 was less than 100 nM.

`CCc1cc(-c2nnc(C(=O)NCC(F)(F)F)n2-c2ccc(CC3CCN(Cc4ccc(CNC(=O)C[C@@H]5N=C(c6ccc(Cl)cc6)c6c(sc(C)c6C)-n6c(C)nnc65)cc4)CC3)cc2)c(O)cc1O` [Compound 91, (S)-4-(4-((1-(4-((2-(4-(4-chlorophenyl)-2,3,9-trimethyl-6H-thieno[3,2-f][1,2,4]triazolo[4,3-a][1,4]diazepin-6-yl)acetamido)methyl)benzyl)piperidin-4-yl)methyl)phenyl)-5-(5-ethyl-2,4-dihydroxyphenyl)-N-(2,2,2-trifluoroethyl)-4H-1,2,4-triazole-3-carboxamide, trifluoroacetic acid] was tested. Which IC50 did it give?
The IC50 was less than 100 nM.

With `Cc1sc2c(c1C)C(c1ccc(Cl)cc1)=N[C@@H](CC(=O)NCC(=O)NCCOc1ccc(-n3c(S)nnc3-c3cc(C(C)C)c(O)cc3O)cc1)c1nnc(C)n1-2` [Compound 48, (S)-2-(4-(4-chlorophenyl)-2,3,9-trimethyl-6H-thieno[3,2-f][1,2,4]triazolo[4,3-a][1,4]diazepin-6-yl)-N-(2-((2-(4-(3-(2,4-dihydroxy-5-isopropylphenyl)-5-mercapto-4H-1,2,4-triazol-4-yl)phenoxy)ethyl)amino)-2-oxoethyl)acetamide] as the compound, how does the IC50 read?
The IC50 was 100 to 1000 nM.

`Cc1sc2c(c1C)C(c1ccc(Cl)cc1)=N[C@@H](CC(=O)N1CCC(CN3CCN(Cc4ccc(-n5c(C(=O)NCCN6CCCCC6)nnc5-c5cc(C(C)C)c(O)cc5O)cc4)CC3)CC1)c1nnc(C)n1-2` [Compound 107, (S)-4-(4-((4-((1-(2-(4-(4-chlorophenyl)-2,3,9-trimethyl-6H-thieno[3,2-f][1,2,4]triazolo[4,3-a][1,4]diazepin-6-yl)acetyl)piperidin-4-yl)methyl)piperazin-1-yl)methyl)phenyl)-5-(2,4-dihydroxy-5-isopropylphenyl)-N-(2-(piperidin-1-yl)ethyl)-4H-1,2,4-triazole-3-carboxamide, trifluoroacetic acid] was tested. Which IC50 did it give?
Its IC50 is less than 100 nM.

For `Cc1sc2c(c1C)C(c1ccc(Cl)cc1)=N[C@@H](CCNCC1CCN(C(=O)C3CCN(Cc4ccc(-n5c(O)nnc5-c5cc(C(C)C)c(O)cc5O)cc4)CC3)CC1)c1nnc(C)n1-2` [Compound 64, (4-(((2-((6S)-4-(4-chlorophenyl)-2,3,9-trimethyl-6H-thieno[3,2-f][1,2,4]triazolo[4,3-a][1,4]diazepin-6-yl)ethyl)amino)methyl)piperidin-1-yl)(1-(4-(3-(2,4-dihydroxy-5-isopropylphenyl)-5-hydroxy-4H-1,2,4-triazol-4-yl)benzyl)piperidin-4-yl) methanone, trifluoroacetic acid], which IC50 is on record?
The IC50 was 100 to 1000 nM.

For `CCN(CC)CCNC(=O)c1nnc(-c2cc(C(C)C)c(O)cc2O)n1-c1ccc(CN2CCN(CC3CCN(C(=O)C[C@@H]4N=C(c5ccc(Cl)cc5)c5c(sc(C)c5C)-n5c(C)nnc54)CC3)CC2)cc1` [Compound 118, (S)-4-(4-((4-((1-(2-(4-(4-chlorophenyl)-2,3,9-trimethyl-6H-thieno[3,2-f][1,2,4]triazolo[4,3-a][1,4]diazepin-6-yl)acetyl)piperidin-4-yl)methyl)piperazin-1-yl)methyl)phenyl)-N-(2-(diethylamino)ethyl)-5-(2,4-dihydroxy-5-isopropylphenyl)-4H-1,2,4-triazole-3-carboxamide, trifluoroacetic acid], which IC50 is on record?
Its IC50 is less than 100 nM.
